Results reported in PubChem BioAssay (NCI).
“And” between values parts separate entries of the source, which are not always exact repeats. Equal values may be shown once.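 A five-concentration, 48-hour dose response in 96-well plates underlies each endpoint, interpolated linearly between surrounding concentrations. GI50 = concentration required for 50% inhibition of growth. TGI marks complete inhibition of growth.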

Tests used:
Assay in all cases: growth of human tumour cells (NCI), 48 h
[1] = test system: ACHN renal
[2] = test system: PC-3 prostate
[3] = test system: U251 CNS
[4] = test system: OVCAR-8 ovarian
[5] = test system: SK-MEL-28 melanoma
[6] = test system: COLO 205 colon
[7] = test system: NCI/ADR-RES ovarian
[8] = test system: SN12C renal
[9] = test system: SNB-75 CNS
[10] = test system: NCI-H226 lung

Cc1nc2c(-c3cnc(N)nc3)nc(N3CCOCC3)nc2n1C(C)C
TGI [1]: > 100 µM | TGI [2]: > 100 µM | TGI [3]: > 10 µM and 37.7 µM | TGI [4]: > 5.51 µM and 4.37 µM | TGI [5]: 0.524 µM and 3.51 µM | TGI [6]: 1.1 µM and 3.68 µM | TGI [7]: 4.81 µM | TGI [8]: > 100 µM | TGI [9]: 0.334 µM and 0.272 µM

CC(C)=CC/C=C(/C)[C@H]1CC[C@]2(C)[C@@H]1CC[C@@H]1[C@@]3(C)CCCNC(C)(C)[C@@H]3CC[C@]12C
GI50 [1]: 3.37 µM | TGI [1]: 12.4 µM | GI50 [2]: 1.62 µM | TGI [2]: 3.59 µM | GI50 [3]: 1.75 µM | TGI [3]: 3.28 µM | GI50 [5]: 2.35 µM | TGI [5]: 5.67 µM | GI50 [6]: 1.8 µM | TGI [6]: 3.53 µM | GI50 [7]: 2.28 µM | TGI [7]: 5.07 µM | GI50 [8]: 2.3 µM | TGI [8]: 5.45 µM | GI50 [9]: 2.56 µM | TGI [9]: 10.8 µM | GI50 [10]: 3.75 µM | TGI [10]: 16.8 µM

CN(C)/C=N/c1nc2c(ncn2C2OC(CO)C(O)C2O)c(=O)[nH]1 (stereo unspecified)
TGI [1]: > 100 µM | TGI [3]: > 100 µM | TGI [4]: > 100 µM | TGI [6]: > 100 µM | TGI [8]: > 100 µM | TGI [9]: > 100 µM | TGI [10]: > 100 µM

COc1ccc2c3c([nH]c2c1[N+](=O)[O-])C(C)=NCC3
TGI [1]: > 100 µM | TGI [3]: > 100 µM | TGI [4]: > 100 µM | TGI [5]: > 100 µM | TGI [6]: > 100 µM | TGI [8]: > 100 µM | TGI [9]: > 100 µM | TGI [10]: > 100 µM

COc1ccc(CN2C(=O)/C(=C\C(=O)c3ccc(OCCN4CCCCC4)cc3)c3ccccc32)cc1
GI50 [1]: 1.69 µM | TGI [1]: 3.05 µM | GI50 [2]: 2.7 µM | TGI [2]: 5.55 µM | GI50 [3]: 2.24 µM | TGI [3]: 5.15 µM | GI50 [5]: 1.98 µM | TGI [5]: 4.02 µM | GI50 [6]: 1.86 µM | TGI [6]: 3.97 µM | GI50 [7]: 3.84 µM | TGI [7]: 22.5 µM | GI50 [8]: 1.74 µM | TGI [8]: 3.5 µM | GI50 [9]: 12.8 µM | TGI [9]: 27.6 µM | GI50 [10]: 14.9 µM | TGI [10]: 32.2 µM

Cn1c2c(c3ccccc31)C1CCCCCCC1C1C(=O)OC(=O)C21 (stereo unspecified)
TGI [1]: > 100 µM | TGI [3]: > 100 µM | TGI [4]: > 100 µM | TGI [5]: > 100 µM | TGI [6]: > 100 µM | TGI [8]: > 100 µM | TGI [9]: > 100 µM | TGI [10]: > 100 µM

COc1cnc2c(c1)C(=O)c1c-2n(CCCNC(C)C)c(=O)c2cc(Cl)ccc12
GI50 [2]: 0.948 µM | TGI [2]: 2.57 µM | GI50 [3]: 0.0654 µM | TGI [3]: 1.53 µM | GI50 [4]: 0.286 µM | TGI [4]: 2.13 µM | GI50 [6]: 0.111 µM | TGI [6]: 2 µM | GI50 [7]: 0.301 µM | TGI [7]: 2.75 µM | GI50 [8]: 0.417 µM | TGI [8]: 2.11 µM | GI50 [9]: 0.146 µM | TGI [9]: 1.59 µM | GI50 [10]: 1.58 µM | TGI [10]: 30.1 µM

CC1=NNC(=O)C2CCC(=O)N12 (stereo unspecified)
TGI [1]: > 100 µM | TGI [3]: > 100 µM | TGI [4]: > 100 µM | TGI [5]: > 100 µM | TGI [6]: > 100 µM | TGI [8]: > 100 µM | TGI [9]: > 100 µM | TGI [10]: > 100 µM

COC(=O)c1cc2c(s1)C(=O)c1ccccc1-2
TGI [1]: > 100 µM | TGI [3]: > 100 µM | TGI [4]: > 100 µM | TGI [5]: > 100 µM | TGI [6]: > 100 µM | TGI [8]: > 100 µM | TGI [9]: > 100 µM | TGI [10]: > 100 µM

O=[N+]([O-])c1ccc(C2=Nn3cnnc3SC2)o1
TGI [1]: 29.4 µM | TGI [3]: 30.1 µM | TGI [4]: 53.9 µM | TGI [5]: 31.1 µM | TGI [8]: 30.1 µM | TGI [9]: 51.7 µM | TGI [10]: 67.2 µM

O=C(CCn1[nH]c(=O)c(Cl)c(Cl)c1=O)NO
TGI [1]: > 100 µM | TGI [3]: > 100 µM | TGI [4]: > 100 µM | TGI [5]: > 100 µM | TGI [6]: > 100 µM | TGI [8]: > 100 µM | TGI [9]: > 100 µM | TGI [10]: > 100 µM

[N-]=[N+]=NC12CC3C4CC5CC3C(C1)C(C5)C4C2
TGI [1]: > 100 µM | TGI [3]: > 100 µM | TGI [4]: > 100 µM | TGI [5]: > 100 µM | TGI [6]: > 100 µM | TGI [8]: > 100 µM | TGI [9]: > 100 µM | TGI [10]: > 100 µM

CC(C)(C)CC(C)(C)c1cc2c(O)c(c1)Cc1cc(C(C)(C)CC(C)(C)C)cc(c1O)Cc1cc(C(C)(C)CC(C)(C)C)cc(c1O)Cc1cc(C(C)(C)CC(C)(C)C)cc(c1O)C2
TGI [1]: > 100 µM | TGI [3]: > 100 µM | TGI [4]: > 100 µM | TGI [5]: > 100 µM | TGI [6]: > 100 µM | TGI [8]: > 100 µM | TGI [9]: > 100 µM

CN(C)c1ccc(C(C=C2c3ccccc3Sc3ccccc32)=C(C#N)C#N)cc1
TGI [1]: > 100 µM | TGI [3]: > 100 µM | TGI [4]: > 100 µM | TGI [5]: > 100 µM | TGI [6]: > 100 µM | TGI [8]: > 100 µM | TGI [9]: 89.9 µM

CC(C)CCN1c2nc(Nc3cc(F)c(O)c(F)c3)ncc2N(C)C(=O)C1C (stereo unspecified)
GI50 [1]: 3.21 µM | TGI [1]: > 59.5 µM | GI50 [3]: 5.55 µM | TGI [3]: 58.6 µM | GI50 [4]: 17.6 µM | TGI [4]: > 100 µM | GI50 [5]: 10.9 µM | TGI [5]: > 95.8 µM | GI50 [6]: 14.6 µM | TGI [6]: 29.3 µM | GI50 [7]: 7.81 µM | TGI [7]: > 100 µM | GI50 [8]: 4.9 µM | TGI [8]: > 91.6 µM | GI50 [9]: 13.4 µM | TGI [9]: 44.3 µM | GI50 [10]: 17.4 µM | TGI [10]: 41.2 µM

COc1ccc(C(=O)C(c2ccc(OC)cc2)C2(O)C(=O)Nc3ccc([N+](=O)[O-])cc32)cc1 (stereo unspecified)
TGI [1]: > 100 µM | TGI [3]: > 100 µM | TGI [4]: > 100 µM | TGI [5]: > 100 µM | TGI [6]: > 100 µM | TGI [8]: 24.4 µM | TGI [9]: > 100 µM | TGI [10]: > 100 µM

CCOc1ccccc1C=C1c2ccccc2C(=O)c2ccccc21
TGI [1]: > 100 µM | TGI [3]: > 100 µM | TGI [4]: 43 µM | TGI [5]: > 100 µM | TGI [6]: 17.4 µM | TGI [8]: > 100 µM

CC(C)c1ccccc1NC(=O)CCc1n[nH]c(=S)o1
TGI [1]: > 100 µM | TGI [3]: > 100 µM | TGI [4]: > 100 µM | TGI [5]: > 100 µM | TGI [6]: 58.3 µM | TGI [8]: > 100 µM | TGI [9]: > 100 µM | TGI [10]: > 100 µM

COc1cc(C#CC(=O)OC/C=C/c2ccc3c(c2)OCO3)cc(OC)c1OC
TGI [1]: > 100 µM | TGI [2]: 72.3 µM | TGI [3]: > 100 µM | TGI [4]: > 100 µM | TGI [5]: > 100 µM | TGI [6]: 35.7 µM | TGI [7]: 47.8 µM | TGI [8]: > 100 µM | TGI [10]: 48.5 µM

N#Cc1nc(Nc2cccc3ccccc23)sc1N
TGI [1]: 75.3 µM | TGI [3]: 52.9 µM | TGI [4]: > 100 µM | TGI [5]: > 100 µM | TGI [6]: 81.5 µM | TGI [8]: > 100 µM | TGI [9]: > 100 µM | TGI [10]: > 100 µM

NC(=O)NC1C(c2ccccc2)=C1c1ccccc1
TGI [1]: 31.2 µM | TGI [2]: 39.4 µM | TGI [3]: 32.7 µM | TGI [4]: 25.5 µM | TGI [5]: 33.3 µM | TGI [6]: 27.9 µM | TGI [7]: 27 µM | TGI [8]: 35.4 µM | TGI [10]: 25.1 µM

CC(C)N(C(=O)C12C3C4C5(C#N)C3C1(C#N)C5C42I)C(C)C (stereo unspecified)
TGI [1]: > 100 µM | TGI [3]: > 100 µM | TGI [4]: > 100 µM | TGI [5]: > 100 µM | TGI [6]: > 65.1 µM | TGI [8]: > 100 µM | TGI [9]: > 100 µM | TGI [10]: > 100 µM
